assay: Human HepG2 cell viability assay in 384 well format; assay type: toxicity, cell-based; set-up: dose 125 nL, time 70.5 hour; concentration not given beside the values; conditions: HepG2 cells, read-out: Inhibition

First: Cc1noc(C)c1CN1CCN(C(=O)C(C(C)C)n2cncn2)CC1 (stereo not drawn)
Second: Cc1nn(CCNC(C)Cn2cncn2)c(C)c1Cl (stereo not drawn)
The cytotoxicity at 70.5 h of the first is lower: 2.25% for the first, 7.1% for the second.

Going from Cc1cc(N2CCCC2)nc(N(C)CCO)c1C#N to CCS(=O)(=O)N1CCc2nc(N3CCCC3)nc(N(C)C)c2CC1, the cytotoxicity at 70.5 h rises from -9.55% to 24.9%.

Going from Cc1cc(C(=O)N2CC[C@H]3[C@H](C[C@@H](CN4CCCC4)N3C)C2)c(C)o1 to CN1CCN([C@H]2CCN(C(=O)c3nn(C)cc3Cl)C[C@H]2CCCO)CC1, the cytotoxicity at 70.5 h falls from 1.81% to -10.4%.

Compared with O=S(=O)(CCN1CCCC1Cn1cccn1)c1ccccc1 (stereo not drawn), COc1ccc(CC(=O)N2CCCCC2Cn2cccn2)cc1OC (stereo not drawn) is higher in cytotoxicity at 70.5 h: -13.8% for the first, -2.2% for the second.

First: COc1ncccc1NC(=O)N(Cc1ccccn1)C1CC1
Second: COCCN(Cc1ccccn1)C(=O)Nc1cccnc1N1CCCC1
The cytotoxicity at 70.5 h of the first is lower: -17.7% for the first, -12.3% for the second.

Going from COCCN1CCOCC2(C1)CN(C(=O)c1conc1C)CCO2 (stereo not drawn) to COCC1CC2(CCN(C(=O)c3ccccc3C)CC2)CN1C(C)C (stereo not drawn), the cytotoxicity at 70.5 h rises from -1.78% to 19.7%.

Compared with CCCc1n[nH]c(C2CN(CCCS(C)(=O)=O)CCO2)n1 (stereo not drawn), COc1ccc(OC)c(C2CCN(C(=O)CCc3n[nH]c(N)n3)C2)c1 (stereo not drawn) is higher in cytotoxicity at 70.5 h: -4.54% for the first, 12.4% for the second.

First: Cc1cc(C(=O)Nc2n[nH]c(C3CC3)n2)c2c(C)noc2n1
Second: Cc1cnc(CN(C)C2CCCN(Cc3noc(C4CC4)n3)C2)cn1 (stereo not drawn)
The cytotoxicity at 70.5 h of the first is higher: 29% for the first, 16.1% for the second.

Going from O=C(NCCc1nnc2n1CCCCC2)N1CCC2(CCCC2)CC1 to Cn1cc(CN2CCCC3(CCN(C(=O)c4cnccn4)C3)C2)cn1 (stereo not drawn), the cytotoxicity at 70.5 h rises from -7.24% to 11.1%.

Going from FC(F)CN1CCC(NCc2ccc(-n3cccn3)nc2)CC1 to OC1CCN(C2CCN(Cc3cnc(-c4cccs4)nc3)CC2)CC1, the cytotoxicity at 70.5 h rises from -9.95% to 12.5%.

First: Cn1ccc(C(=O)N2CCCC(n3cncn3)C2)cc1=O (stereo not drawn)
Second: Cc1cnn(C2CCCN(C(=O)c3cc(C4CC4)on3)C2)c1 (stereo not drawn)
The cytotoxicity at 70.5 h of the first is lower: -10.3% for the first, -4.84% for the second.

Compared with CC(C)c1noc(CN(Cc2ccccc2)C2CC2)n1, Cc1noc(CS(=O)(=O)C(C)C(=O)N(C)c2ccccc2)n1 (stereo not drawn) is lower in cytotoxicity at 70.5 h: 0.0143% for the first, -23.3% for the second.

First: N#Cc1cc(NC(=O)c2ccccc2)ccc1N1CCC(O)CC1
Second: O=C(NCc1ccccc1CN1CCC(O)CC1)Nc1ccccc1
The cytotoxicity at 70.5 h of the first is higher: 1.64% for the first, -0.116% for the second.

Compared with CCc1ccc(C(=O)N2CCCC3(CCCC(=O)N3C)C2)cc1 (stereo not drawn), CN1N=C(C(=O)NCc2ccc3c(c2)CCCN3C)CCC1=O is higher in cytotoxicity at 70.5 h: -10.6% for the first, 5.34% for the second.

First: Cn1cc(Br)c(C(=O)NCCCn2cc(Cl)cn2)n1
Second: COCCNC(=O)c1cc(COc2cncc(Cl)c2)on1
The cytotoxicity at 70.5 h of the first is higher: 0.918% for the first, -3.27% for the second.

First: O=C(Cn1cnnn1)Nc1ccc(F)cc1OCC1CC1
Second: CN(C)C(=O)C1CCN(Cn2ccc(-c3ccc(F)cc3)n2)CC1
The cytotoxicity at 70.5 h of the first is lower: -13.9% for the first, -12.5% for the second.

Going from Cc1cc(=O)n2nc(CNc3cc(Cl)ccc3C)nc2[nH]1 to CCc1nnc(CN2CCC(c3nc4cc(Cl)ccc4o3)CC2)o1, the cytotoxicity at 70.5 h falls from -9.92% to -11.3%.

First: CCn1c(SCC(N)=O)nnc1-c1csc2c1CCCC2
Second: Cc1cnn(CC2CN(Cc3ccc(C(N)=O)cc3)CCO2)c1 (stereo not drawn)
The cytotoxicity at 70.5 h of the first is higher: 2.39% for the first, -7.11% for the second.

Compared with CCC1CN(C(=O)c2cncc(C)c2)CCC(=O)N1Cc1ccccc1 (stereo not drawn), Cc1cccc2nc(CN3CCCC(Cn4ccnn4)C3)cc(=O)n12 (stereo not drawn) is higher in cytotoxicity at 70.5 h: -3.22% for the first, 2.5% for the second.

Compared with OCC1CCCN1c1cc(NCc2ccccn2)ncn1 (stereo not drawn), Cc1nn(C)c2c(NCc3ccccn3)ncnc12 is lower in cytotoxicity at 70.5 h: 0.0157% for the first, -2.17% for the second.

Compared with CCCN(CC(F)(F)F)S(=O)(=O)c1cc(C(N)=O)n(C)c1, CC(C)[C@H]1CN(Cc2nccn2C)C[C@@H]1NC(=O)CCS(C)(=O)=O is higher in cytotoxicity at 70.5 h: -8.17% for the first, -5.68% for the second.

First: Cc1ccnc(NC(=O)c2cnc(C3CCCNC3)cn2)c1 (stereo not drawn)
Second: Cc1cc(C)nc(N2CCCC2c2cccnc2)n1 (stereo not drawn)
The cytotoxicity at 70.5 h of the first is lower: -4.33% for the first, -2.91% for the second.

First: COc1cc(OC)cc(C(=O)NCc2nn(C)c3c2COCC3)c1
Second: COc1ccc(-c2nc(C(=O)NCC3CCOC3)cs2)cc1OC (stereo not drawn)
The cytotoxicity at 70.5 h of the first is higher: 0.999% for the first, -7.66% for the second.

Compared with CN(CCCNS(=O)(=O)N1CCC2(CC1)OCCO2)c1ccccc1, O=S(=O)(NCCn1cc(C2CCOC2)nn1)c1ccc(Cl)cc1 (stereo not drawn) is lower in cytotoxicity at 70.5 h: 22.7% for the first, 17.5% for the second.

First: O=C(c1cccnc1N1CCOCC1)N1CCCC(n2ccnc2)C1 (stereo not drawn)
Second: Nc1cccnc1N1CCCCCC1
The cytotoxicity at 70.5 h of the first is lower: -6.03% for the first, 2.46% for the second.

Going from CCn1cnnc1C1CCN(C(=O)c2ccnc(N(C)C)c2)CC1 to Cc1nc(NC(=O)N2CCCC(C(C)(C)O)C2)nn1C (stereo not drawn), the cytotoxicity at 70.5 h rises from -8.14% to -6.42%.

Going from CC(C)C(=O)NCCCNC(=O)Nc1cc(-c2ccccc2)ns1 to CNC(=O)c1cccc(CCNc2ccccn2)c1, the cytotoxicity at 70.5 h rises from -12.9% to -0.207%.

Compared with COC(=O)c1ccc(NC(C)c2ccc3c(c2)CC(=O)N3)nn1 (stereo not drawn), CNc1nc2c(s1)C(=O)CN(C(=O)[C@@H](N)Cc1cccc(OC)c1)C2 is higher in cytotoxicity at 70.5 h: -10.3% for the first, -5.78% for the second.

First: CC(C)Oc1cc(N2CCCC(O)C2)nc(N)n1 (stereo not drawn)
Second: CC(=O)N1CCCC1(C)c1nc(C)no1 (stereo not drawn)
The cytotoxicity at 70.5 h of the first is higher: 7.95% for the first, 0.978% for the second.

First: CS(=O)(=O)N1CCC(NC(=O)COc2ccc(Cl)c(Cl)c2)CC1
Second: C=C(C)CN1CCC(NC(=O)Nc2ccc(F)c(C(N)=O)c2)CC1
The cytotoxicity at 70.5 h of the first is lower: -8.67% for the first, -6.42% for the second.

First: CC(C)c1ccc(OCCC(=O)N2CCCN(C(N)=O)CC2)cc1
Second: Cc1nc(-c2ccsc2)ccc1C(=O)NCCC(=O)N1CCCC1
The cytotoxicity at 70.5 h of the first is higher: -1.87% for the first, -3.29% for the second.

Compared with CN(C)C(=O)N[C@H]1CN(C2CCOCC2)[C@@H]2CCCO[C@H]12, CS(=O)(=O)N1C[C@@H](Oc2ccccn2)[C@H]2OCCC[C@H]21 is lower in cytotoxicity at 70.5 h: 17.6% for the first, -2.17% for the second.

Compared with CN1CCN(c2ncccc2N)CC1, Cc1ccnc(N2CCN(C3CCS(=O)(=O)C3)CC2)n1 (stereo not drawn) is lower in cytotoxicity at 70.5 h: -11.7% for the first, -13.6% for the second.

Compared with CCc1nnc(CN2CCc3cnc(C)nc3C2)o1, CCc1cc(N(C)Cc2nonc2C)nc(N2CCOCC2)n1 is higher in cytotoxicity at 70.5 h: -3.58% for the first, 1.99% for the second.

Going from CN(Cc1ccc2c(c1)OCO2)C(=O)c1ccc(=O)n(C)c1 to Cc1ccc(N2CCc3c(CN(C)Cc4ccco4)cncc3C2)nn1, the cytotoxicity at 70.5 h falls from -1.05% to -9.85%.

First: CCc1nnc2n1CCN(C(=O)c1cc(Br)c[nH]1)C2
Second: CC1c2ccc(F)cc2CCN1C(=O)c1nc(=O)[nH][nH]1 (stereo not drawn)
The cytotoxicity at 70.5 h of the first is higher: -5.11% for the first, -6.25% for the second.

Going from CCN(CC)C1(Cc2cc(-c3ccccn3)on2)COC1 to Cc1nc(CN2CCN(C3CCOC3)Cc3cccnc32)cs1 (stereo not drawn), the cytotoxicity at 70.5 h rises from -4.45% to -0.337%.

Going from Cc1n[nH]cc1CNC1(c2ccc(Br)cc2)CC1 to OCc1ccc(CN2CCC(n3cc(-c4ccsc4)nn3)CC2)o1, the cytotoxicity at 70.5 h falls from -0.84% to -5.24%.

First: O=C1CCC(C(=O)Nc2cnn(-c3ccccc3Cl)c2)N1 (stereo not drawn)
Second: Cc1cccc(N(CC(=O)N2CCCCC2)Cc2ccno2)c1
The cytotoxicity at 70.5 h of the first is lower: -9.74% for the first, -5.71% for the second.

Compared with CN(C)S(=O)(=O)N1C[C@@H]2CC[C@H](C1)N(Cc1ccc(F)c(F)c1)C2, CC(C)(C)c1csc(CN2CCN(S(=O)(=O)c3cccnc3)CC2)n1 is lower in cytotoxicity at 70.5 h: 4.72% for the first, -14.8% for the second.

First: CC(=O)c1cccc(-n2nc(C(C)=O)c(C(C)=O)c2C)c1
Second: COCCNC(=O)CCN1C(=O)CC2(CCCC2)C1=O
The cytotoxicity at 70.5 h of the first is higher: -2.25% for the first, -15.7% for the second.

OC(CNc1nc(C2CCCC2)nc2c1CCNCC2)C(F)(F)F (stereo not drawn) showed a cytotoxicity at 70.5 h of -7.87%.
